Laboratory results: patent publication US20180271110A1, “REDUCTION OF MICROBIAL ACTIVITY AND METHOD OF PROCESSING ANIMAL AND POULTRY PRODUCTS” (Zee Company, priority 2017, published 2018)
Like-named read-outs stand apart in the source and are kept apart here.

How the values were obtained:
[1] = tested on: Salmonella Enterica serovar enteriditis (SE); experiment: Antimicrobial efficacy of DCDMH vs DBDMH on Salmonella-contaminated chicken legs and beef cubes (15 s agitation in solution); format: cell-based; details: for log Reduction Ave.: 15 s agitation, 15 s drip
Description: In the following working example, a study was conducted to compare the antimicrobial efficacy of 1,3,-dichloro-5,5,-dimethylhydantoin (DCDMH) and 1,3,-dibromo-5,5,-dimethylhydantoin (DBDMH) at 200 ppm available chlorine on both chicken and beef test substrates. For sample preparation, chicken legs and beef cubes obtained from a local grocery store were used to conduct the following tests. Prior to exposure of the test substrates to the antimicrobial solutions having DCDMH or DBDMH, the test substrates were exposed for two hours in 300 mL of broth of Salmonella Enterica serovar enteriditis (SE), which had been grown to a concentration of >6 log 10 in Nutrient Broth for 2 h at 35° C. Following exposure, the test substrates were removed from the Nutrient Broth and allowed to drain and air dry for about 30 minutes at ambient room temperature before testing began.
1. The following solutions were prepared and distributed in 200 mL aliquots into Ziploc bags:
a. 200 ppm available chlorine solutions derived from DCDMH distributed it into an appropriate number of Ziploc bags;
b. FSIS new buffer solution containing Lecithin and Sodium thiosulfate (LST) into an appropriate number of Ziploc bags;
c. Phosphate Buffer Solution (PBS) into an appropriate number of Ziploc bags.
2. Into each bag of DCDMH solution, a Salmonella-contaminated test substrate was placed and agitated manually for 15 s. The test substrate was removed from the bag, allowed to drip for 15 s, then placed into a Ziploc bag containing 200 mL LST. The bag was then vigorously shaken for 45 s to neutralize the DCDMH and to release SE from the surface of the chicken leg.
3. After the bags were shaken, 100 μL from each of the shaken bags was removed and dispensed into test tubes containing 9.9 mL of DI HOH. The contents of these tubes were used for serial dilution.
4. As controls, a prepared test substrate was inserted into each of two bags of PBS and agitated manually for 15 s. The substrate was removed from the bag and placed directly into a Ziploc bag containing 200 mL LST. The bag was vigorously shaken for 45 s to release SE from the surface of the substrate.
5. Repeat Step 3 with the control solutions.
6. Serially dilute the contents of the test tubes from Step 3 above. Plate 100 μL aliquots on Salmonella-Shigella Agar (SSA), then incubate for 18-24 h at 35° C. Enumerate colonies that have black centers (presumptive SE) after incubation.
7. Repeat the entire protocol replacing the DCDMH solution with […] solution in Step 1.a.

[2] = tested on: Salmonella Enterica serovar enteriditis (SE)
Description: In the following working example, a study was conducted to compare the antimicrobial efficacy of 1,3,-dichloro-5,5,-dimethylhydantoin (DCDMH) at various concentrations (100 ppm, 200 ppm, and 400 ppm) on beef test substrates from beef brisket and beef liver. For sample preparation, beef brisket and beef liver were cubed to have approximately […] of exposed surface. Prior to exposure of the test substrates to the antimicrobial solutions having DCDMH, the test substrates were incubated for two hours in 300 mL of broth of Salmonella Enterica serovar enteriditis (SE), which had been grown to a concentration of >6 log 10 in Nutrient Broth for 2 h at 35° C. Following exposure, the test substrates were removed from the Nutrient Broth and allowed to drain and air dry for about 30 minutes at ambient room temperature before testing began. The test was replicated 10 times for each concentration and two controls. The concentration of DCDMH was then tested on the exposed test substrates using spray and dip applications.
1. A test substrate cube was suspended on a stainless steel hook and the antimicrobial solution was atomized onto the cube to thoroughly cover all sides until solution was dripping from the test substrate cube, which was for about 5 to about 10 seconds;
2. The test substrate cube was allowed to drip for about 10 to about 50 seconds (to obtain total antimicrobial contact times of about 15 to about 60 seconds when combined with the exposure in step 1 above).
3. The test substrate cube was then placed in a Ziploc bag containing 100 mL of LST solution to neutralize any residual antimicrobial chemistry;
(§1) 4. The Ziploc bag containing the test substrate cube was then vigorously shaken for about for 45 seconds to release bacterial cells from the surface of the meat into the LST solution;
(§2) 5. A 100 μL aliquot of LST solution from the bag was injected into 9.9 mL of sterile phosphate buffer solution;
(§3) 6. The LST solution was serially diluted, then plated on Salmonella Shigella agar and incubated for 24 h prior to counting presumptive positive Salmonella colonies;
(§4) 7. This procedure was repeated at each concentration of DCDMH;
8. For controls, 2 cubes of each test substrate were treated as in steps 1-2 above, except the control substrate cubes were atomized with sterile deionized water in step 1 above. And then steps 2-6 of the process above were continued.
1. A test substrate cube was placed in a Ziploc bag containing 100 mL of the antimicrobial solution and allowed to remain in the solution for about 15 to about 30 seconds under gentle manual agitation;
2. The test substrate cube was removed from the test solution using sterile forceps and allowed to drip for about 0 to about 30 seconds (to obtain total antimicrobial contact times of about 15 to about 60 seconds when combined with the exposure in step 1 above);
8. For controls, 2 cubes of each test substrate were treated as in steps 1-2 above, except the control substrate cubes were placed in 100 mL Ziploc bags of phosphate buffer solution in step 1 above. And then steps 2-6 of the process above were continued.

[3] = tested on: Salmonella Enterica serovar enteriditis (SE); remark: listed apart in the source
Description: In the following working example, a study was conducted to compare the antimicrobial efficacy of 1,3,-dichloro-5,5,-dimethylhydantoin (DCDMH) at various concentrations (50 ppm, 100 ppm, and 200 ppm) on chicken test substrates, namely, chicken legs and chicken liver. Prior to exposure of the test substrates to the antimicrobial solutions having DCDMH, the test substrates were incubated for two hours in 1000 mL of broth of Salmonella Enterica serovar enteriditis (SE), which had been grown to a concentration of >6 log 10 in Nutrient Broth for 2 h at 35° C. Following exposure, the test substrates were removed from the Nutrient Broth and allowed to drain and air dry for about 30 minutes at ambient room temperature before testing began. The test was replicated 10 times for each concentration and two controls. The concentration of DCDMH was then tested on the exposed test substrates using spray and dip applications.
1. A test poultry product (e.g., chicken leg or chicken liver) was suspended on a stainless steel hook in a spray cabinet and sprayed until the part was drenched with antimicrobial solution, which was for about 5 to about 10 seconds;
2. The test poultry product was allowed to drip for about 10 to about 50 seconds (to obtain total antimicrobial contact times of about 15 to about 60 seconds when combined with the exposure in step 1 above);
3. The test poultry product was then placed in a Ziploc bag containing 200 mL of LST solution to neutralize any residual antimicrobial chemistry;
4. The Ziploc bag containing the test poultry product was then vigorously shaken for about for 45 seconds to release bacterial cells from the surface of the poultry product into the LST solution;
as §2
6. The LST solution was serially diluted, then plated on Salmonella Shigella agar and incubated for 24-36 hours prior to counting presumptive positive Salmonella colonies;
as §4
8. For controls, 2 poultry legs and 2 poultry livers for the corresponding test were treated as in steps 1-2 above, except the control poultry products were drenched with sterile deionized water in step 1 above. And then steps 2-6 of the process above were continued.
1. A test poultry product was placed in a Ziploc bag containing 200 mL of the antimicrobial solution and allowed to remain in the solution for about 15 to about 30 seconds under gentle manual agitation;
2. The test poultry product was removed from the test solution using sterile forceps and allowed to drip for about 0 to about 30 seconds (to obtain total antimicrobial contact times of about 15 to about 60 seconds when combined with the exposure in step 1 above);
3. The test poultry product was then placed in a Ziploc bag containing 200 mL broth of LST solution to neutralize any residual antimicrobial chemistry;
as §1, §3
8. For controls, 2 poultry legs and 2 poultry liver for each test were treated as in steps 1-2 above, except the test substrate cubes were placed in 200 mL Ziploc bags of phosphate buffer solution in step 1 above. And then steps 2-6 of the process above were continued.

[4] = beef test substrate, 200 ppm available chlorine
[5] = chicken test substrate, 200 ppm available chlorine

CC1(C)C(=O)N(Br)C(=O)N1Br [DBDMH, 1,3,-dibromo-5,5,-dimethylhydantoin, reference compound]
log Reduction Ave. [1, 4]: 0.15 log | log Reduction Ave. [1, 5]: 0.29 log

CC1(C)C(=O)N(Cl)C(=O)N1Cl [DCDMH, 1,3,-dichloro-5,5,-dimethylhydantoin]
antimicrobial efficacy against S. Enteritidis compared with DBDMH ([1]; 200 ppm available chlorine, chicken and beef, short contact time): substantially greater antimicrobial efficacy | log Reduction Ave. [1, 4]: 0.51 log | log Reduction Ave. [1, 5]: 0.64 log | anticipated efficacy (log reduction) under normal in-plant use conditions ([1]; normal in-plant use conditions, anticipated): > 1 log | Ave. Log Reduction ([2]; Beef Liver, Active Cl 100 ppm, Dip, 60 seconds): 0.90 log | Ave. Log Reduction ([2]; Beef Liver, Active Cl 200 ppm, Spray, 30 seconds): 1.01 log | Ave. Log Reduction ([2]; Beef Liver, Active Cl 400 ppm, Dip, 15 seconds): 1.11 log | Ave. Log Reduction ([2]; Beef Muscle, Active Cl 100 ppm, Dip, 60 seconds): 0.89 log | Ave. Log Reduction ([2]; Beef Muscle, Active Cl 200 ppm, Spray, 30 seconds): 0.91 log | Ave. Log Reduction ([2]; Beef Muscle, Active Cl 400 ppm, Dip, 15 seconds): 1.18 log | antimicrobial efficacy against S. Enteritidis ([2]; about 100 ppm to about 400 ppm, dip or spray application, beef substrates): great antimicrobial efficacy | anticipated efficacy (log reduction) under normal in-plant use conditions ([2]; normal in-plant use conditions, about 100 to about 400 ppm, dip or spray, anticipated): > 1 log | Ave. Log Reduction ([3]; Chicken Leg, Active Cl 50 ppm, Dip, 60 seconds): 0.78 log | Ave. Log Reduction ([3]; Chicken Leg, Active Cl 100 ppm, Spray, 30 seconds): 0.86 log | Ave. Log Reduction ([3]; Chicken Leg, Active Cl 200 ppm, Dip, 15 seconds): 1.22 log | Ave. Log Reduction ([3]; Chicken Liver, Active Cl 50 ppm, Dip, 60 seconds): 0.69 log | Ave. Log Reduction ([3]; Chicken Liver, Active Cl 100 ppm, Spray, 30 seconds): 0.72 log | Ave. Log Reduction ([3]; Chicken Liver, Active Cl 200 ppm, Dip, 15 seconds): 1.07 log | antimicrobial efficacy against S. Enteritidis ([3]; about 50 ppm to about 200 ppm, dip or spray application, poultry products): great antimicrobial efficacy | anticipated efficacy (log reduction) under normal in-plant use conditions ([3]; normal in-plant use conditions, about 50 to about 200 ppm, dip or spray, anticipated): > 1 log
